Data reported in patent publication US20260324636A1, “COMPOSITION FOR PROVIDING PLANT WITH STRESS RESISTANCE” (KIRIN HOLDINGS KABUSHIKI KAISHA, priority 2022, published 2026).

Tests used:
Arabidopsis thaliana = experiment: Oxidation stress resistance against methyl viologen (leaf chlorosis, chlorophyll content), Example 8; type: in vivo, Arabidopsis thaliana (Col-0); details: with 5 μM methyl viologen, 2 days
Procedure: (§1) A wild-type Arabidopsis thaliana strain (accession: Col-0) was used as an experimental material. Seeds were purchased from Inplanta Innovations Inc.
A Murashige and Skoog Plant Salt Mixture 2.2 g (Nacalai tesque) and sucrose 10 g (FUJIFILM Wako) were dissolved in 1 l of pure water, a pH was adjusted to 5.8, and the resultant was sterilized in an autoclave (121° C., 20 minutes).
Arabidopsis thaliana seeds were sterilized by incubation with the use of a Kitchen Haiter® (Kao Corporation) diluted to 2-fold with pure water for 3 minutes. After the seeds were washed with sterile water 3 times, the seeds soaked in sterile water were incubated at 4° C. in the dark for 1 day in order to germinate the seeds at the same time. […]
Leaf chlorosis is observed in plants upon oxidation stress exposure. Thus, an extent of chlorosis was evaluated by measuring the content of the green pigment chlorophyll in leaves. The chlorophyll content was quantified in accordance with the method of Yamaguchi et al. (Nature Commun., Jun. 9, 2021; 12 [1]: 3480). […] The absorbance of the extract was measured at 647 nm and 664 nm, respectively, to calculate the chlorophyll content. The chlorophyll content was calculated in accordance with the formula: 19.43×A647+8.05×A664. The calculated value was divided by the plant weight per well, so as to eliminate the influence of individual sizes.

ZAT12 = experiment: Histone H4 acetylation level of ZAT12 by chromatin immunoprecipitation and quantitative PCR, Example 14; type: in vivo, Arabidopsis thaliana (Col-0); details: Arabidopsis thaliana; 0.4 mM in medium, 2 hours after application; read-out: histone H4 acetylation level of ZAT12, increase vs group not subjected to the treatment
Procedure: as §1
A liquid medium containing a ½ Murashige and Skoog Plant Salt Mixture (Nacalai) and 1 (w/v) % sucrose (FUJIFILM Wako) was used as a growth medium.
Arabidopsis thaliana seeds were sterilized with the use of a Kitchen Haiter® liquid (Kao Corporation) diluted to one-half concentration with distilled water for 3 minutes, washed 3 times with sterile distilled water, and then incubated at 4° C. overnight. The growth medium (100 ml) was prepared in a 300-ml flask, the incubated seeds were seeded therein, the flask was transferred to an incubator (TOMY), and shake culture was then initiated. The incubator was maintained at a temperature of 22° C. for a daily cycle of 16 hours light and 8 hours darkness, and the rotation speed of the shaker was set at 180 rpm.
A stock solution of N-acetylglutamic acid (Tokyo Chemical Industry Co., Ltd.) was added to Arabidopsis thaliana 7 days after seeding to the final concentration of 0 mM and 0.4 mM in the media, followed by incubation for 2 hours. Sample fixation following incubation was performed in accordance with Yamaguchi et al (Arabidopsis Book, Feb. 17, 2014; 12: e0170). […]

CC(=O)N[C@@H](CCC(=O)O)C(=O)O [N-acetylglutamic acid]
chlorophyll content of the MV-treated groups (Arabidopsis thaliana; 0, 0.01, 0.1, and 0.4 mM, fresh weight basis): increased as the N-acetylglutamic acid concentration was increased
leaf chlorosis in MV-treated group (Arabidopsis thaliana; 0.4 mM): substantially no leaf chlorosis was observed
fold induction at 400 µM (ZAT12): 2.3
